Results taken from paper PMC5216056 (Nature Communications, 2017).
“And” between values parts separate entries of the source, which are not always exact repeats. Identical values can stand only once.

Tests used:
H3 (h) = target: T1, H3 (h) (Homo sapiens, UniProt Q9Y5N1); test: CEREP panel; format: binding; conditions: 10 µM
T1 construct: CEREP (contract assay)

M4 (h) = target: T2, M4 (h) (Homo sapiens, UniProt P08173); test: CEREP panel; format: binding
T2 construct: CEREP (contract assay)

H1 (h) = target: T3, H1 (h) (Homo sapiens, UniProt P35367); test: CEREP panel; format: binding; conditions: 10 µM
T3 construct: CEREP (contract assay)

5-HT1A (h) = target: T4, 5-HT1A (h) (Homo sapiens, UniProt P08908); test: CEREP panel; format: binding
T4 construct: CEREP (contract assay)

Cl- channel (GABA-gated) = test: CEREP panel; format: binding; conditions: 10 µM
COX2 (h) = target: T5, COX2 (h) (Homo sapiens, UniProt P35354); test: CEREP panel, enzyme and cell-based assays; format: biochemical; conditions: 10 µM
T5 construct: CEREP (contract assay)

[1] = phosphate buffer pH 6.5, from DMSO stock
D2S (h) = target: T6, D2S (h) (Homo sapiens, UniProt P14416); test: CEREP panel; format: binding; conditions: 10 µM
T6 construct: CEREP (contract assay)

[2] = Pharmacokinetics, oral administration in mice; format: in vivo, mouse
physchem = conditions: organic solvent or mixture
dopamine transporter (h) = target: T7, dopamine transporter (h) (Homo sapiens, UniProt Q01959); test: CEREP panel; format: binding
T7 construct: CEREP (contract assay)

hABHD12 = target: T8, hABHD12 (Homo sapiens, UniProt Q8N2K0); test: ABHD12 activity; format: biochemical; conditions: read-out: ABHD12 % inhibition
T8 construct: expressed in transfected cells
T8 sequence (Q8N2K0 1-398): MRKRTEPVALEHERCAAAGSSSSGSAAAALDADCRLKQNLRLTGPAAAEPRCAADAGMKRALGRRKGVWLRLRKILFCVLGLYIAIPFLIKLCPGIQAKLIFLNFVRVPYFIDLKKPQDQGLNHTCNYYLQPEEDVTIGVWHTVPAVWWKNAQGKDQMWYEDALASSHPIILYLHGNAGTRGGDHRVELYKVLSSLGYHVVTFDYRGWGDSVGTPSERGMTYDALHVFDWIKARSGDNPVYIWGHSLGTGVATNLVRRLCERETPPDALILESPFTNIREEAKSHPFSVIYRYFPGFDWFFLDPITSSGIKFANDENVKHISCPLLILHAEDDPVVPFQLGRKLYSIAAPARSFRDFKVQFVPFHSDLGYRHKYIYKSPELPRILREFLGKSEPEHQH

CCK1 (CCKA) (h) = target: T9, CCK1 (CCKA) (h) (Homo sapiens, UniProt P32238); test: CEREP panel; format: binding
T9 construct: CEREP (contract assay)

in vitro = conditions: human, hepatocytes
dopamine uptake reporter = target: T10, dopamine uptake reporter (Homo sapiens, UniProt Q01959); test: Dopamine uptake full dose-response (CEREP follow-up)
T10 construct: CEREP

[3] = Pharmacokinetics, oral administration in rat; format: in vivo; conditions: p.o.
MC1 = target: T11, MC1 (Mus musculus, UniProt Q01727); test: CEREP panel; format: binding
T11 construct: CEREP (contract assay)

MC5 = target: T12, MC5 (Homo sapiens, UniProt P33032); test: CEREP panel; format: binding
T12 construct: CEREP (contract assay)

MCH1 = target: T13, MCH1 (Homo sapiens, UniProt Q99705); test: CEREP panel; format: binding
T13 construct: CEREP (contract assay)

PR = test: CEREP panel; format: binding; conditions: 10 µM
BLT1 (LTB4) = target: T14, BLT1 (LTB4) (Homo sapiens, UniProt Q15722); test: CEREP panel; format: binding
T14 construct: CEREP

MCH2 = target: T15, MCH2 (Homo sapiens, UniProt Q969V1); test: CEREP panel; format: binding
T15 construct: CEREP (contract assay)

C5a = target: T16, C5a (Homo sapiens, UniProt P21730); test: CEREP panel; format: binding
T16 construct: CEREP (contract assay)

MC3 = target: T17, MC3 (Homo sapiens, UniProt P41968); test: CEREP panel; format: binding
T17 construct: CEREP (contract assay)

motilin = target: T18, motilin (Homo sapiens, UniProt O43193); test: CEREP panel; format: binding
T18 construct: CEREP (contract assay)

A2B = target: T19, A2B (Homo sapiens, UniProt P29275); test: CEREP panel; format: binding
T19 construct: CEREP

B1 = target: T20, B1 (Homo sapiens, UniProt P46663); test: CEREP panel; format: binding
T20 construct: CEREP

[4] = male, C57BL/6J or C57BL/6JRj, mouse, plasma, po, 5 mg/kg

T5 sequence (P35354 18-604): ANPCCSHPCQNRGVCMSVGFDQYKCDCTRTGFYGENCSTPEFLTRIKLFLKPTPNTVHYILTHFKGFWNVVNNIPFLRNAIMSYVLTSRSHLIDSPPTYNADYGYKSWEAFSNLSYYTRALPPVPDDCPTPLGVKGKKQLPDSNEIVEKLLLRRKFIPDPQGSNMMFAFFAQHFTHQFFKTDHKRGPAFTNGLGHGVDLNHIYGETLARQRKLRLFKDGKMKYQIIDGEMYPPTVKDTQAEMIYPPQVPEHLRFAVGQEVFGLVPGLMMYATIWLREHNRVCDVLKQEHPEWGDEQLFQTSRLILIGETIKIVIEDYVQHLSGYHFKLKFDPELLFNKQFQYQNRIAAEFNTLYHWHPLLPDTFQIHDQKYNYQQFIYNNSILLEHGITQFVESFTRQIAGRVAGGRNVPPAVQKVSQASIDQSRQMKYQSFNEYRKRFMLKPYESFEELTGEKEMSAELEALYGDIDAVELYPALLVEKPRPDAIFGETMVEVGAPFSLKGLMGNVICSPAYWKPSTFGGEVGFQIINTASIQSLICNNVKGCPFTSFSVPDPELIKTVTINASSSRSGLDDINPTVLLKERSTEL
T2 sequence (P08173 whole entry): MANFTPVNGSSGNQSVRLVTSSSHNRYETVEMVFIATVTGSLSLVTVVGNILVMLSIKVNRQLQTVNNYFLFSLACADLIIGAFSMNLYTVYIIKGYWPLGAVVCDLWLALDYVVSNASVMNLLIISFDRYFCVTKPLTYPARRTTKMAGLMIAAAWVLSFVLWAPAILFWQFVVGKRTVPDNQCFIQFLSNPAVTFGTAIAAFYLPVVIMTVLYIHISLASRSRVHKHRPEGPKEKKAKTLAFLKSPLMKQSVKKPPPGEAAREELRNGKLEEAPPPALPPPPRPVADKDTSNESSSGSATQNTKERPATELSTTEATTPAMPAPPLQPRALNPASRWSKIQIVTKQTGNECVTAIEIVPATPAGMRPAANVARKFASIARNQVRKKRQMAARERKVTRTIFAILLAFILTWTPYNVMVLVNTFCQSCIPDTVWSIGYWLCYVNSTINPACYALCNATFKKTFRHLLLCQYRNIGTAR
T4 sequence (P08908 whole entry): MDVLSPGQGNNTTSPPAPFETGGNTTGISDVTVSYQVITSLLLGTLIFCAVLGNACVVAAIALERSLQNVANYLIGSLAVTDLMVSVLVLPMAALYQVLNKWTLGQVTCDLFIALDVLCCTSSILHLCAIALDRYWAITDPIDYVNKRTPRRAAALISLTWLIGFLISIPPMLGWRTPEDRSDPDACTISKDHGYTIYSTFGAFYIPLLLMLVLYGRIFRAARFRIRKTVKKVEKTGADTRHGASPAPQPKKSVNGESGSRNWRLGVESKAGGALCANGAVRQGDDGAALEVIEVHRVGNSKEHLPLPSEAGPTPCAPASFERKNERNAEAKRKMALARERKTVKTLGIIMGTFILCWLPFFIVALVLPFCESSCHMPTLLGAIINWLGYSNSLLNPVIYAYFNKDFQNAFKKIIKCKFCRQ
T7 sequence (Q01959 whole entry): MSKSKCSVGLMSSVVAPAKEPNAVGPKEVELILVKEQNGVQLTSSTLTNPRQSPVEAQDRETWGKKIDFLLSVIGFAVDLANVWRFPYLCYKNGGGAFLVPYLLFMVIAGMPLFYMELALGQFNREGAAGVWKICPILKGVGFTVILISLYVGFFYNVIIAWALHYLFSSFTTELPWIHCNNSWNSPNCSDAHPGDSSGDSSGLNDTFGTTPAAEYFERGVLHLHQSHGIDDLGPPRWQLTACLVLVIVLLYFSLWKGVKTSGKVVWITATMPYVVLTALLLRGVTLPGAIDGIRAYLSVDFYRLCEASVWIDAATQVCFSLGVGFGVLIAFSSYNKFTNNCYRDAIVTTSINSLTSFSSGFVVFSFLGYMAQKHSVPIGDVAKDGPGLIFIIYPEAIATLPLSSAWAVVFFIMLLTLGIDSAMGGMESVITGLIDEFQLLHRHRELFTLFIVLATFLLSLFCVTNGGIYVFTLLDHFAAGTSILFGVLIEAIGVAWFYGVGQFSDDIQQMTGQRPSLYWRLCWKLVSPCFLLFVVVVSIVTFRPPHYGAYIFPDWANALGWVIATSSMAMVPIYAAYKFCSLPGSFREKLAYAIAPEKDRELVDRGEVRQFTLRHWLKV
T10 sequence (Q01959 whole entry): as above
T3 sequence (P35367 whole entry): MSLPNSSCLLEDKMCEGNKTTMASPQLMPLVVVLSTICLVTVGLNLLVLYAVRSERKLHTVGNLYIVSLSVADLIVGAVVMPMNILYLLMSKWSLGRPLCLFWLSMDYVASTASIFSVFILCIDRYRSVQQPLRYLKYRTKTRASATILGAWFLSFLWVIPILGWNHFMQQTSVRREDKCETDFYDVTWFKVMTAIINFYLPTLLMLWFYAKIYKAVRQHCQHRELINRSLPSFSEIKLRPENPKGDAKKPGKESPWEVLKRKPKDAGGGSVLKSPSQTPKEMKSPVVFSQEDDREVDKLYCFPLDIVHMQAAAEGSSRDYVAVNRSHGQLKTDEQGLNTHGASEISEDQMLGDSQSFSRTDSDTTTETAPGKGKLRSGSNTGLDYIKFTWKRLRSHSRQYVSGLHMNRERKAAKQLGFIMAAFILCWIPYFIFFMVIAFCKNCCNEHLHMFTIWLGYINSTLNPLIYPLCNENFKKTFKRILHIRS
T1 sequence (Q9Y5N1 whole entry): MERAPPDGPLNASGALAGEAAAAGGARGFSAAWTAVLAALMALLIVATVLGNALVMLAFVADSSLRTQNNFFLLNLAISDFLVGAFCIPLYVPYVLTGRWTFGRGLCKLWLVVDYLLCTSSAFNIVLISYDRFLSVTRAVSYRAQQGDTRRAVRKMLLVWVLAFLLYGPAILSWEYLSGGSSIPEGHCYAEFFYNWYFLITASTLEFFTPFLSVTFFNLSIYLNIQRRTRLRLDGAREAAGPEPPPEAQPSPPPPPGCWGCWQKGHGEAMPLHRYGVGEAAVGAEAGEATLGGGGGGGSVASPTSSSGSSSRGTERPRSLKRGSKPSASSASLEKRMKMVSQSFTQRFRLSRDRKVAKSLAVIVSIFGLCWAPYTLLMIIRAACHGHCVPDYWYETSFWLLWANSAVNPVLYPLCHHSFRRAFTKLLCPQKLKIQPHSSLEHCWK
T18 sequence (O43193 whole entry): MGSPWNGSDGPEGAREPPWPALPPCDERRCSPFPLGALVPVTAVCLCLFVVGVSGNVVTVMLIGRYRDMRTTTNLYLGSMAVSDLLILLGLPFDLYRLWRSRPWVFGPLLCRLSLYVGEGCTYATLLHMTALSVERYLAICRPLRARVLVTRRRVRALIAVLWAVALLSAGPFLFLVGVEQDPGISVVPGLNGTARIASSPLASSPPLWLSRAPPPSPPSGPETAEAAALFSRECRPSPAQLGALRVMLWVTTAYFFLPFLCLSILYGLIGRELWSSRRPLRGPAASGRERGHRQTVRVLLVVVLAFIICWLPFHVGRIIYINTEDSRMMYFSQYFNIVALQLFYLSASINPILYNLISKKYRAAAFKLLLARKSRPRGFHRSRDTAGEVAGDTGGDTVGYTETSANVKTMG
T17 sequence (P41968 whole entry): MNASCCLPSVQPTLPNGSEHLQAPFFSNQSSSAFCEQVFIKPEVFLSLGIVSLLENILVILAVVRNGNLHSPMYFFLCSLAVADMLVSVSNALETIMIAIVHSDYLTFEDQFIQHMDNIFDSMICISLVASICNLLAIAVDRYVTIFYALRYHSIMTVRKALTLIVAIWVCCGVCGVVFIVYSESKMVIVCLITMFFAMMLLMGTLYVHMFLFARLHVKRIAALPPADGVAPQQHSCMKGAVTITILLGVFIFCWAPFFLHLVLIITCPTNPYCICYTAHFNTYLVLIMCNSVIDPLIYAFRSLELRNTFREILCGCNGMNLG
T11 sequence (Q01727 whole entry): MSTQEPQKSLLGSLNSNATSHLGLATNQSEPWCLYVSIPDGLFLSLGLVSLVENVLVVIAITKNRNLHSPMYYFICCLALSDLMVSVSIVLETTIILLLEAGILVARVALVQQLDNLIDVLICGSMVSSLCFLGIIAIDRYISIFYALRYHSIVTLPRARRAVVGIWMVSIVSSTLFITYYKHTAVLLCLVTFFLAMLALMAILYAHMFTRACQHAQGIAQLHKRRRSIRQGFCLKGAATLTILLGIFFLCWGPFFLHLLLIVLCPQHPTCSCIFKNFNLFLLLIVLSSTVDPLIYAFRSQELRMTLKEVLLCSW
T12 sequence (P33032 whole entry): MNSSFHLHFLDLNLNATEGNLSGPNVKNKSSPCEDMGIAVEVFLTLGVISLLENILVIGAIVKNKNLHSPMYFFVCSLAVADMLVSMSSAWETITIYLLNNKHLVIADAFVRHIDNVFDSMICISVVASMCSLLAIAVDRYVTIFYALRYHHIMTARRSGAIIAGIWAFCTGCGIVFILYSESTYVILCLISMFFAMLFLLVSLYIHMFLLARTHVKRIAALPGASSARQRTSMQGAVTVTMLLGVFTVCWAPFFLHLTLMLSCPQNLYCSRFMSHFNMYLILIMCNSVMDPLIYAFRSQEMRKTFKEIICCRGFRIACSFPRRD
T13 sequence (Q99705 whole entry): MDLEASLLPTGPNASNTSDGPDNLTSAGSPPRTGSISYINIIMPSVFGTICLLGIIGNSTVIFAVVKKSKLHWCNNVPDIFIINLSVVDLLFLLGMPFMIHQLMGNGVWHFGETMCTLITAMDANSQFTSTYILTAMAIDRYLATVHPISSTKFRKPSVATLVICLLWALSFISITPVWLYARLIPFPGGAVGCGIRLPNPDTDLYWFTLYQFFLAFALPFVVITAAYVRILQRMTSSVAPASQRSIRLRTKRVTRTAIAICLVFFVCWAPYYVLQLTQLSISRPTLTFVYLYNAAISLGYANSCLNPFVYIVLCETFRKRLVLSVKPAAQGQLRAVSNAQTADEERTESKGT

For `CN1CCCC[C@H]1Cn1cc(C(=O)c2cc([N+](=O)[O-])ccc2I)c2ccccc21` [(S)-AM1241], the “% inhibition H3 (h)” value (H3 (h)) was 87%, the “Plasma protein binding human” value was 0.5 %free and the “% inhibition M4 (h)” value (M4 (h); 10 µM) was 74%. For the same compound, the “% inhibition H1 (h)” value (H1 (h)) was 78% and the “% inhibition 5-HT1A (h)” value (5-HT1A (h); 10 µM) was 74%.
In the case of `COc1ccc(C(=O)c2c(C)n(CCN3CCOCC3)c3cc(I)ccc23)cc1` [AM630], the “% inhibition Cl- channel (GABA-gated)” value (Cl- channel (GABA-gated)) is reported as 87% and the “% inhibition COX2 (h)” value (COX2 (h)) is reported as 96%.
In the case of `CCCCCCC(C)(C)c1ccc([C@@H]2C[C@H](O)CC[C@H]2CCCO)c(O)c1` [CP55940], the inhibition at 10 µM (M4 (h)) is reported as 55%, the Kinetic solubility [1] is reported as “soluble” and the inhibition at 10 µM (5-HT1A (h)) is reported as 92%.
With `Cc1ccc2c(c1)Cc1c(C(=O)NN3CCCCC3)nn(-c3ccc(Cl)cc3Cl)c1-2` [Gp-1a] the “% inhibition D2S (h)” value (D2S (h)) was 53%.
In the case of `CCCCCCC(C)(C)c1cc(OC)c([C@@H]2C=C(CO)[C@@H]3C[C@H]2C3(C)C)c(OC)c1` [HU308], the AUC(0-inf) [2, 4] is reported as 298 ng·h/mL, the AUC(0-t) [2, 4] is reported as 253 ng·h/mL and the half-life [2, 4] is reported as 198 min. It also gave a Cmax ([2]; male, C57BL/6J or C57BL/6JRj, mouse, plasma, po, 5 mg/kg, p.o., read-out: Cmax) of 201 ng/mL, a Tmax ([2]; male, C57BL/6J or C57BL/6JRj, mouse, plasma, po, 5 mg/kg, p.o., read-out: Tmax) of 30 min and an AUCinf/dose ([2]; p.o.) of 59.7 kg·ng·h/mL/mg. For the same compound, the solubility (physchem) was 2.06 µg/mL and 5 µM, the inhibition at 10 µM (dopamine transporter (h)) was 71% and the inhibition at 5 µM (hABHD12) was < 25%. For the same compound, the inhibition at 10 µM (CCK1 (CCKA) (h)) was 75% and the hepatocyte CLint (in vitro) was 8.3 µL/min/1e6 cells.
Work on `CCCCCCC(C)(C)c1cc(OC)c(C2=C[C@H]3CC[C@]2(CO)C3(C)C)c(OC)c1` [HU910] yielded an AUCinf ([2]; p.o.) of 904 ng·h/mL, an AUCinf/dose ([2]; p.o.) of 301 kg·ng·h/mL/mg and an AUClast ([2]; p.o.) of 895 ng·h/mL. It also gave a Cmax ([2]; p.o.) of 495 ng/mL, a T1/2 ([2]; p.o.) of 5.2 h and a Tmax ([2]; p.o.) of 60 min. The “Plasma protein binding human” value was 1.8 %free and the IC50 (dopamine uptake reporter) was 1400 nM.
In the case of `CCCC(C)(C)c1ccc2c(c1)OC(C)(C)[C@@H]1CC=C(C)C[C@@H]21` [JWH133], the AUCinf/dose [3] is reported as 583 kg·ng·h/mL/mg, the AUClast [3] is reported as 3330 ng·h/mL and the T1/2 [3] is reported as 2.7 h. For the same compound, the Cmax ([3]; 6.0 mg/kg) was 2070 ng/mL and the Tmax ([3]; 6.0 mg/kg) was 1.1 h.
In the case of `Cc1c(C(=O)NN2CCCCC2)nn(-c2ccc(Cl)cc2Cl)c1-c1ccc(Cl)cc1` [SR141716A], the inhibition at 10 µM (MC1) is reported as 10%, the inhibition at 10 µM (MC5) is reported as 39% and the inhibition at 10 µM (MCH1) is reported as -12%. The solubility (physchem) was 1.23 µg/mL and 2.7 µM, the “% inhibition PR” value (PR) was 12% and the inhibition at 10 µM (BLT1 (LTB4)) was 14%. The inhibition at 10 µM (MCH2) was -3%, the “% inhibition Cl- channel (GABA-gated)” value (Cl- channel (GABA-gated)) was 83% and the inhibition at 10 µM (C5a) was 2%. The inhibition at 10 µM (MC3) was 53%, the inhibition at 10 µM (motilin) was 25% and the inhibition at 10 µM (A2B) was -7%. It also gave a hepatocyte CLint (in vitro) of 5.7 µL/min/1e6 cells and an inhibition at 10 µM (B1) of -3%.
With `Cc1c(C(=O)c2cccc3ccccc23)c2cccc3c2n1[C@H](CN1CCOCC1)CO3` [WIN55212-2] the “% inhibition COX2 (h)” value (COX2 (h)) was 50%.
